From US20230103631A1, “PEPTIDES AS SELECTIVE GIP RECEPTOR AGONISTS” (Sanofi, priority 2020, published 2023) come the findings set out here.

*1 amine or outer side, *2 acyl side, *3 side chain or, on linkers, in order; H or OH if unused. Where a SMILES comes first, the peptide text is derived from it. Side-chain parts run from the residue outwards. [ ]: non-standard residue; d: D form. The star is where a group is joined. C20 diacid = O=C(O)CCCCCCCCCCCCCCCCCCC(=O)*; C18 diacid = O=C(O)CCCCCCCCCCCCCCCCC(=O)*; γGlu = O=C(O)[C@H](CCC(=O)[*:2])N[*:1]; NMeY = CN[C@@H](Cc1ccc(O)cc1)C(=O)O; AEEA = NCCOCCOCC(=O)O; Aib = CC(C)(N)C(=O)O

The nature of one data set: physchem. The class given is physicochemical. The following applies: for Soluble amount: 24 h, pH 7.4; for solubility at 24 h: pH 7.4, Soluble amount. The method, then:
Prior to the solubility measurement of a peptide batch, its purity was determined through UHPLC/MS. […] Therefore, solutions from solid samples were prepared in a buffer system with a concentration of 10 mg/ml compound based on the previously determined % purity: Solubility buffer system A) 100 mM phosphate buffer pH 7.4 […] Solubility buffer system C) 100 mM phosphate buffer pH 7.4, 2.7 mg/ml m-cresol UHPLC-UV was performed after 1 h of gentle agitation and storage at 5° C. over night (24 h) from the supernatant, which was obtained after 15 min of centrifugation at 2500 RCF (relative centrifugal acceleration). […] The different UV extinction coefficients of sample and reference peptide were calculated based on the different amino acid sequences and considered in the concentration calculation. The analytical method used was Analytical UHPLC Method A. Peptide samples were prepared in solubility buffer system A or C and solubility was assessed as described in Methods.

Data set [1] addresses human GLP-1 receptor (hGLP-1R) (Homo sapiens, UniProt P43220). The experiment in a line: cAMP HTRF assay, HEK-293 cell line over-expressing human GLP-1 receptor. The class given is cell-based. To be noted: HEK-293, cAMP, 0% HSA. The protocol: Each vial contained 1.8 ml cells. The vials were slowly frozen to −80° C. in isopropanol, and then transferred in liquid nitrogen for storage.
Prior to their use, frozen cells were thawed quickly at 37° C. and washed (5 min at 900 rpm) with 20 ml cell buffer (1× HBSS; 20 mM HEPES, plus 0.1% HSA if indicated in Example conditions).
For measurement of cAMP generation, 5 μl cells (final 5000 cells/well) and 5 μl of test compound were added to a 384-well plate, followed by incubation for 30 min at room temperature.
The cAMP generated was determined using a kit from Cisbio Corp. based on HTRF (Homogenous Time Resolved Fluorescence). The cAMP assay was performed according to manufacturer's instructions (Cisbio).

A further data set relates to C57Bl/6 mice. The experiment in a line: Intraperitoneal glucose tolerance test (ipGTT) after s.c. treatment. Type of data set: in vivo. To be noted: 10 nmol/kg s.c. 6 h before i.p. glucose load, mean ± SEM. The method, then: Healthy, normoglycemic male C57Bl/6NCrl mice were ordered in an age of 9-10 weeks with an approximate body weight (BW) of 24-26 g at Charles River Laboratories Deutschland GmbH, 97633 Sulzfeld, Germany. Mice were shipped grouped housed (N=4 per cage), acclimatized for one week and remained grouped housed throughout the entire study. Mice were housed under vivarium conditions that included a 12 h light/dark cycle (light phase 06:00 AM-06:00 PM), mean room temperature of 22±2° C. and a relative mean humidity of 55±10%. All animals had free access to food (Ssniff R/M-H diet) and water prior to study start.
The primary objective of the study was to investigate the compound-induced lowering of the blood glucose excursion and improvement of glucose tolerance in a mouse ipGTT setting and therefore the primary parameters included blood glucose, delta blood glucose (normalized to the time point just prior to the i.p. glucose challenge, t=0 h) and their respective calculated area under curve (AUC) values. The study was performed as an acute, single dosing study with 6 groups and the male animals were randomly divided to groups of 7-8 mice per group. Dose-dependent pharmacodynamic blood glucose lowering efficacy of the GIPR agonist was analyzed with s.c. injections 6 h before the i.p. glucose load in the dose range from 3 up to 100 nmol/kg and compared to the vehicle group as well as the semaglutide positive control at a dose of 10 nmol/kg.
In more detail, mice were fed overnight and on the following morning brought to the lab with food removed but ad libitum access to water. Blood samplings (5 μl) were performed at: −6.5, −0.5, 0, 0.17, 0.5, 1, 1.5, 2 and 3 h before and after the glucose bolus of 1 g glucose per kg BW i.p. given at time point t=0 h. On time point t=0.17 h an additional K-EDTA plasma sample from 60-80 μl blood was taken for plasma insulin analysis. Blood was withdrawn from the tip of the tail. The GIPR agonist and semaglutide were dissolved in 10 mM phosphate buffer pH 7.4 with 2.3% glycerol and 0.01% polysorbat 20 (vehicle) and s.c. treatment was performed −6 h before the glucose load (t=0 h) using an injection volume of 5 ml/kg. The injection solutions were freshly prepared prior to the experiment using sterile filtered vehicle solution.
Blood glucose was determined enzymatically (Gluco-quant® Glucose/HK kit on Roche/Hitachi 912). Plasma insulin was determined using a mouse/rat insulin sandwich immunoassay kit from Meso Scale Discovery.
All data were collected using Microsoft Excel. None of the data were collected online. The results are expressed as means±standard error of the mean (SEM). As primary study parameters, blood glucose, baseline (time point t=0 h) subtracted delta blood glucose and their respective calculated area under curve (AUC) values were determined. The respective AUC data were calculated using the trapezoid rule for the time period t=0 h until t=2 h.
The statistical analysis of the ipGTT blood glucose excursion data response following subcutaneous compound or vehicle treatment was performed on the calculated AUC values of blood glucose raw data as well as the calculated AUC values for baseline subtracted delta blood glucose data. In a first step the Levene's test was used to test for equality of variances between groups. Where Levene's test was significant (p s 0.05), a rank transformation of the calculated AUC data was applied to stabilize the variances before ANOVA analysis was conducted. Where Levene's test was not significant (p>0.05) ANOVA was conducted without prior rank transformation. In a second step a One-way ANOVA analysis for factor treatment followed by Dunnett's multiple comparisons test vs. vehicle group was used to test for statistical differences. Different levels of significance were defined as *=p<0.05, **=p<0.001, ***=p<0.0001. All analyses were performed using SAS (version 9.4) under Linux via the interface software EverSt@t V6.1. […]

Sequence of human GLP-1 receptor (hGLP-1R) (P43220 24-463): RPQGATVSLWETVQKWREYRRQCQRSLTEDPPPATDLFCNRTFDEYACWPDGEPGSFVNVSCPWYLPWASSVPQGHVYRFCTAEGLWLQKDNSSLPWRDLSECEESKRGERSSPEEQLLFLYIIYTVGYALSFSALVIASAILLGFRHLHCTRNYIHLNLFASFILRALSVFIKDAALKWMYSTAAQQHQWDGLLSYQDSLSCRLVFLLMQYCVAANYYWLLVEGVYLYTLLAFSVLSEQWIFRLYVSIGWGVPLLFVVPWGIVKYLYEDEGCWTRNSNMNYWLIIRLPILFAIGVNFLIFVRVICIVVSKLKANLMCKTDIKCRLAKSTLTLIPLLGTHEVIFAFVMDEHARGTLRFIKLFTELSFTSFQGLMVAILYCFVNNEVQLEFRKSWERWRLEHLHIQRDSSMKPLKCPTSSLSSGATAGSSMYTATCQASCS

In the data set “physchem”, `CC[C@H](C)[C@H](NC(=O)[C@H](Cc1ccccc1)NC(=O)[C@H](CCC(=O)O)NC(=O)[C@H](CCC(=O)O)NC(=O)[C@H](CCC(N)=O)NC(=O)[C@H](Cc1c[nH]cn1)NC(=O)[C@@H](NC(=O)[C@H](CCCNC(=N)N)NC(=O)[C@H](CC(=O)O)NC(=O)[C@H](CCCCNC(=O)COCCOCCNC(=O)COCCOCCNC(=O)CC[C@H](NC(=O)CCCCCCCCCCCCCCCCC(=O)O)C(=O)O)NC(=O)C(C)(C)NC(=O)[C@@H](NC(=O)[C@H](CO)NC(=O)[C@H](CC(C)C)NC(=O)[C@H](CC(=O)O)NC(=O)[C@H](CO)NC(=O)[C@@H](NC(=O)[C@H](Cc1ccccc1)NC(=O)[C@@H](NC(=O)CNC(=O)[C@H](CCC(=O)O)NC(=O)C(C)(C)NC(=O)[C@H](Cc1ccc(O)cc1)NC)[C@@H](C)O)[C@@H](C)CC)[C@@H](C)CC)[C@@H](C)CC)C(=O)N[C@@H](CCC(=O)O)C(=O)N[C@@H](Cc1c[nH]c2ccccc12)C(=O)N[C@@H](CC(C)C)C(=O)N[C@@H](CC(C)C)C(=O)N[C@@H](C)C(=O)N[C@@H](CCC(N)=O)C(=O)NCC(=O)N1CCC[C@H]1C(=O)N[C@@H](CO)C(=O)N[C@@H](CO)C(=O)NCC(=O)N[C@@H](C)C(=O)N1CCC[C@H]1C(=O)N1CCC[C@H]1C(=O)N1CCC[C@H]1C(=O)N[C@@H](CO)C(N)=O` [SEQ ID NO: 13, MeHN-Y-Aib-E-G-T-F-I-S-D-I-S-I-Aib-K[{AEEA}2-gGlu-C18OH]-DRIHQEEFIEWILAQGPSSGAPPPS-NH2] (H-[NMeY][Aib]EGTFISDLSI[Aib]K([AEEA-AEEA-γGlu-C18 diacid])DRIHQEEFIEWLLAQGPSSGAPPPS-NH2) came in with a Soluble amount above 11.0 mg/mL and a solubility at 24 h above 10.2 mg/mL. Besides, the EC50 in data set [1] was above 10 nM.

As for `CC[C@H](C)[C@H](NC(=O)[C@H](Cc1ccccc1)NC(=O)[C@H](CCC(=O)O)NC(=O)[C@H](CCC(=O)O)NC(=O)[C@H](CCC(N)=O)NC(=O)[C@H](Cc1c[nH]cn1)NC(=O)[C@@H](NC(=O)[C@H](CCCNC(=N)N)NC(=O)[C@H](CC(=O)O)NC(=O)[C@H](CCCCNC(=O)COCCOCCNC(=O)COCCOCCNC(=O)CC[C@H](NC(=O)CC[C@H](NC(=O)CCCCCCCCCCCCCCCCCCC(=O)O)C(=O)O)C(=O)O)NC(=O)C(C)(C)NC(=O)[C@@H](NC(=O)[C@H](CO)NC(=O)[C@H](CC(C)C)NC(=O)[C@H](CC(=O)O)NC(=O)[C@H](CO)NC(=O)[C@@H](NC(=O)[C@H](Cc1ccccc1)NC(=O)[C@@H](NC(=O)CNC(=O)[C@H](CCC(=O)O)NC(=O)C(C)(C)NC(=O)[C@@H](N)Cc1ccc(O)cc1)[C@@H](C)O)[C@@H](C)CC)[C@@H](C)CC)[C@@H](C)CC)C(=O)N[C@@H](CCC(=O)O)C(=O)N[C@@H](Cc1c[nH]c2ccccc12)C(=O)N[C@@H](CC(C)C)C(=O)N[C@@H](CC(C)C)C(=O)N[C@@H](C)C(=O)N[C@@H](CCC(N)=O)C(=O)NCC(=O)N1CCC[C@H]1C(=O)N[C@@H](CO)C(=O)N[C@@H](CO)C(=O)NCC(=O)N[C@@H](C)C(=O)N1CCC[C@H]1C(=O)N1CCC[C@H]1C(=O)N1CCC[C@H]1C(=O)N[C@@H](CO)C(N)=O` [SEQ ID NO: 15, H2N-Y-Aib-E-G-T-F-I-S-D-I-S-I-Aib-K[{AEEA}2-{gGlu}2-C20OH]-DRIHQEEFIEWILAQGPSSGAPPPS-NH2] (H-Y[Aib]EGTFISDLSI[Aib]K([AEEA-AEEA-γGlu-γGlu-C20 diacid])DRIHQEEFIEWLLAQGPSSGAPPPS-NH2), in “physchem”, the Soluble amount was above 9.2 mg/mL and the solubility at 24 h was above 10.3 mg/mL. In addition, the half-maximal effective concentration (EC50) in data set [1] was above 10 nM.

As to semaglutide [reference compound], the “Incremental blood glucose concentration AUCi” value in the data set on C57Bl/6 mice (vehicle +4.93 ± 0.324) is reported as “+1.15 ± 0.255 mmol/L* 0-2 h”. For the same molecule, the “Blood glucose concentration AUC” value with C57Bl/6 mice (vehicle +22.15 ± 0.662) is recorded as “+10.21 ± 0.503 mmol/L* 0-2 h”.

In “physchem”, `CC[C@H](C)[C@H](NC(=O)[C@H](Cc1ccccc1)NC(=O)[C@H](CCC(=O)O)NC(=O)[C@H](CCC(=O)O)NC(=O)[C@H](CCC(N)=O)NC(=O)[C@H](Cc1c[nH]cn1)NC(=O)[C@@H](NC(=O)[C@H](CCCNC(=N)N)NC(=O)[C@H](CC(=O)O)NC(=O)[C@H](CCCCNC(=O)COCCOCCNC(=O)COCCOCCNC(=O)COCCOCCNC(=O)CC[C@H](NC(=O)CCCCCCCCCCCCCCCCC(=O)O)C(=O)O)NC(=O)C(C)(C)NC(=O)[C@@H](NC(=O)[C@H](CO)NC(=O)[C@H](CC(C)C)NC(=O)[C@H](CC(=O)O)NC(=O)[C@H](CO)NC(=O)[C@@H](NC(=O)[C@H](Cc1ccccc1)NC(=O)[C@@H](NC(=O)CNC(=O)[C@H](CCC(=O)O)NC(=O)C(C)(C)NC(=O)[C@@H](N)Cc1ccc(O)cc1)[C@@H](C)O)[C@@H](C)CC)[C@@H](C)CC)[C@@H](C)CC)C(=O)N[C@@H](CCC(=O)O)C(=O)N[C@@H](Cc1c[nH]c2ccccc12)C(=O)N[C@@H](CC(C)C)C(=O)N[C@@H](CC(C)C)C(=O)N[C@@H](C)C(=O)N[C@@H](CCC(N)=O)C(=O)NCC(=O)N1CCC[C@H]1C(=O)N[C@@H](CO)C(=O)N[C@@H](CO)C(=O)NCC(=O)N[C@@H](C)C(=O)N1CCC[C@H]1C(=O)N1CCC[C@H]1C(=O)N1CCC[C@H]1C(=O)N[C@@H](CO)C(N)=O` [SEQ ID NO: 12, H2N-Y-Aib-E-G-T-F-I-S-D-I-S-I-Aib-K[{AEEA}3-gGlu-C18OH]-DRIHQEEFIEWILAQGPSSGAPPPS-NH2] (H-Y[Aib]EGTFISDLSI[Aib]K([AEEA-AEEA-AEEA-γGlu-C18 diacid])DRIHQEEFIEWLLAQGPSSGAPPPS-NH2) showed a Soluble amount above 9.1 mg/mL and a solubility at 24 h above 8.8 mg/mL. The same molecule displayed an EC50 in data set [1] above 10 nM.

The solubility is how much of the substance goes into solution per volume. In general, EC50 refers to the concentration at which the effect is half-maximal. Read a low EC50 as greater potency.
